Like-named read-outs stand apart in the source and are kept apart here.
Tested on: T-lymphocyte cells isolated from thymus of balb/c mice
Experiment: Mouse T-cell proliferation (thymidine incorporation)
Format: cell-based
Procedure: T-lymphocyte cells isolated from thymus of balb/c mice weighing 17±1 g were used. Test compound and/or vehicle was incubated with the cells (4×10^6/ml) in the presence of 3 μg/ml concanavalin A (Con A) overnight. Thymidine incorporation was assessed by liquid scintillation counting. B-lymphocyte cells isolated from the spleen of balb/c mice weighing 17±1 g were used. Test compound and/or vehicle was incubated with the cells (1.5×10^6/ml) in the presence of 10 μg/ml lipopolysaccharide (LPS) in AIM-V medium pH 7.4 at 37° C., during 24 hours. [^3H]Thymidine (120 nM) was then added for an additional overnight incubation period. Thymidine incorporation was assessed by liquid scintillation counting. […] T-cells isolated from mouse thymus were inhibited at the concentration of 10 μM by 24% and in the presence of concanavalin T-cells proliferation was inhibited 43%.

Compound `CCCCCCCC(CC(=O)O)OC(=O)CC(CCCCCCC)OC1OC(C)C(O)C(O)C1OC1OC(C)C(O)C(O)C1O` (centres unmarked) [Di-rhamnolipid W3CTS] has an inhibition at 10 µM (in the presence of concanavalin, read-out: inhibition of T-cells proliferation) of 43% and an inhibition at 10 µM (without concanavalin, read-out: inhibition of T-cells) of 24%.
